One may read the Ki as a dissociation constant, usually derived from enzyme kinetics or from competition with a known ligand.

Consider 25 compounds from patent publication US6506772B1, “Substituted [1,2,4]triazolo[1,5a]pyridine derivatives with activity as adenosine receptor ligands” (Hoffmann-La Roche Inc., priority 2000, dated 2003).

The target in test [1] is T1, human adenosine A2A receptor (Homo sapiens, UniProt P29274).
T1 construct: expressed in transfected cells; host or cells: CHO cells, Semliki Forest virus expression system; membrane preparation
T1 sequence (P29274 whole entry): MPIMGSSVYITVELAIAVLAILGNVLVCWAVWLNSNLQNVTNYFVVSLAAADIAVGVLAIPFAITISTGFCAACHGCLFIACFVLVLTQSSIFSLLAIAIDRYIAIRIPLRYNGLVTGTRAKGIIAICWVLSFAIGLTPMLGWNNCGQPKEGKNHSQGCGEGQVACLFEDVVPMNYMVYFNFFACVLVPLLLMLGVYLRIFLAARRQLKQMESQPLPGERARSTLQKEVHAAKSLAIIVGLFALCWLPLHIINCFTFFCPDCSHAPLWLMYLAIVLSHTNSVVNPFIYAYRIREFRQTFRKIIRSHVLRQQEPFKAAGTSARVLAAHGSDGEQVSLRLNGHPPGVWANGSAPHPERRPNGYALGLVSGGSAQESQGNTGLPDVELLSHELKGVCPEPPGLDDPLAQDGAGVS
Put plainly: Human adenosine A2A receptor [3H]-SCH-58261 binding assay. As to conditions: for Ki: affinity to human adenosine A2A receptor, read-out: Ki HA2A; for selectivity (A1/A2a): calculated ratio of the affinity to the HA1 receptor to the HA2a receptor. The procedure: Human Adenosine A2A Receptor
The human adenosine A2A receptor was recombinantly expressed in chinese hamster ovary (CHO) cells using the semliki forest virus expression system. Cells were harvested, washed twice by centrifugation, homogenized and again washed by centrifugation. The final washed membrane pellet was suspended in a Tris (50 mM) buffer containing 120 mM NaCl, 5 mM KCl, 2 mM CaCl2 and 10 MM MgCl2 (pH 7.4) (buffer A). […] Compounds were tested at 10 concentrations from 10 μM-0.3 nM. All assays were conducted in duplicate and repeated at least two times. Assay plates were incubated for 1 hour at room temperature before centrifugation and then bound ligand determined using a Packard Topcount scintillation counter. IC50 values were calculated using a non-linear curve fitting program and Ki values calculated using the Cheng-Prussoff equation.

For another test, the target named is T2, HA1 adenosine receptor (Homo sapiens, UniProt P30542).
T2 sequence (P30542 1-326): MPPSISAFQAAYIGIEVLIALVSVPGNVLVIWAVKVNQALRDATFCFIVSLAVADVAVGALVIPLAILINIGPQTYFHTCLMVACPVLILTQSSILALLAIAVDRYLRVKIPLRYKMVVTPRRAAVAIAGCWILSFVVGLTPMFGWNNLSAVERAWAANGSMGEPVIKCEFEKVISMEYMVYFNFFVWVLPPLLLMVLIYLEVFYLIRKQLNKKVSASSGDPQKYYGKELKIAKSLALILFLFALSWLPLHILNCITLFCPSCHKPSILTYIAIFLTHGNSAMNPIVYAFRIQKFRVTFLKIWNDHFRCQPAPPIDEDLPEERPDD
Put plainly: Human adenosine A1 receptor affinity (Ki hA1). The format is binding. As to conditions: affinity to human adenosine A1 receptor.

With `Nc1cc(C(=O)NCCc2ccccc2F)cc2nc(-c3ccccn3)nn12` [Example 40, 5-Amino-2-pyridin-2-yl-[1,2,4]triazolo[1,5-a]pyridine-7-carboxylic acid [2-(2-fluoro-phenyl)-ethyl]-amide], in test [1], the inhibition constant (Ki) stood at 49.9 nM and the “selectivity (A1/A2a)” value was 4.1. At HA1 adenosine receptor, this compound returned a Ki of 204 nM.

With `COc1ccccc1CNC(=O)c1cc(N)n2nc(-c3ccccn3)nc2c1` [Example 41, 5-Amino-2-pyridin-2-yl-[1,2,4]triazolo[1,5-a]pyridine-7-carboxylic acid 2-methoxy-benzylamide], the Ki came out at 21.8 nM in test [1] and 88.1 nM on HA1 adenosine receptor. For the same compound, the “selectivity (A1/A2a)” value in test [1] is 4.0.

On to `Nc1cc(C(=O)NCc2ccc(F)cc2)cc2nc(-c3ccccn3)nn12` [Example 43, 5-Amino-2-pyridin-2-yl-[1,2,4]triazolo[1,5-a]pyridine-7-carboxylic acid 4-fluoro-benzylamide], for which, in test [1], the Ki was found to be 87.7 nM and the “selectivity (A1/A2a)” value is 2.3. The same compound showed a Ki at HA1 adenosine receptor of 203 nM.

As for `CC(NC(=O)c1cc(N)n2nc(-c3ccccn3)nc2c1)c1ccccc1` (stereo not drawn) [Example 44, 5-Amino-2-pyridin-2-yl-[1,2,4]triazolo[1,5-a]pyridine-7-carboxylic acid (1-phenyl-ethyl)-amide], in test [1], the Ki was found to be 44.5 nM and the “selectivity (A1/A2a)” value is 2.7. At HA1 adenosine receptor, this compound registered a Ki of 120 nM.

For the compound `COc1ccccc1CCNC(=O)c1cc(N)n2nc(-c3ccccn3)nc2c1` [Example 45, 5-Amino-2-pyridin-2-yl-[1,2,4]triazolo[1,5-a]pyridine-7-carboxylic acid [2-(2-methoxy-phenyl)-ethyl]-amide], in test [1], the inhibition constant (Ki) amounted to 53.5 nM and the “selectivity (A1/A2a)” value is 2.4. In addition, the Ki at HA1 adenosine receptor was determined as 128 nM.

Turning to `Nc1cc(C(=O)NCc2ccccc2)cc2nc(-c3ccccn3)nn12` [Example 46, 5-Amino-2-pyridin-2-yl-[1,2,4]triazolo[1,5-a]pyridine-7-carboxylic acid benzylamide], in test [1], the Ki came to 61.1 nM and the “selectivity (A1/A2a)” value is listed as 3.0. The inhibitory constant (Ki) on HA1 adenosine receptor is 184 nM.

Turning to `CCCCCCNC(=O)c1cc(N)n2nc(-c3ccccn3)nc2c1` [Example 47, 5-Amino-2-pyridin-2-yl-[1,2,4]triazolo[1,5-a]pyridine-7-carboxylic acid hexylamide], the inhibition constant Ki in test [1] was found to be 37.5 nM; on HA1 adenosine receptor, 316 nM. The “selectivity (A1/A2a)” value in test [1] is on record as 8.4.

As to `Nc1cc(C(=O)NC2CCCCC2)cc2nc(-c3ccccn3)nn12` [Example 48, 5-Amino-2-pyridin-2-yl-[1,2,4]triazolo[1,5-a]pyridine-7-carboxylic acid cyclohexylamide], the Ki in test [1] turned out to be 62.1 nM; on HA1 adenosine receptor, 366 nM. Besides, the “selectivity (A1/A2a)” value in test [1] is on record as 5.9.

With `CCCCNC(=O)c1cc(N)n2nc(-c3ccccn3)nc2c1` [Example 49, 5-Amino-2-pyridin-2-yl-[1,2,4]triazolo[1,5-a]pyridine-7-carboxylic acid butylamide], in test [1], the Ki is 34.3 nM and the “selectivity (A1/A2a)” value was 7.1. The same compound displayed a Ki on HA1 adenosine receptor of 242 nM.

Regarding `Nc1cc(C(=O)NCCc2ccccc2Cl)cc2nc(-c3ccccn3)nn12` [Example 50, 5-Amino-2-pyridin-2-yl-[1,2,4]triazolo[1,5-a]pyridine-7-carboxylic acid [2-(2-chloro-phenyl)-ethyl]-amide], in test [1], the inhibition constant (Ki) worked out at 119 nM and the “selectivity (A1/A2a)” value is given as 1.0. At HA1 adenosine receptor, this compound showed an inhibition constant Ki of 123 nM.

Regarding `COc1ccc(-c2nc3cc(C(=O)N(Cc4ccccc4)Cc4ccccc4)cc(N)n3n2)s1` [Example 51, 5-Amino-2-(5-methoxy-thiophen-2-yl)-[1,2,4]triazolo[1,5-a]pyridine-7-carboxylic acid dibenzylamide], in test [1], the Ki came to 22.2 nM and the “selectivity (A1/A2a)” value was 5.8. Further, the Ki on HA1 adenosine receptor came to 129 nM.

Consider `COc1ccc(-c2nc3cc(C(=O)NCc4ccccc4Br)cc(N)n3n2)s1` [Example 52, 5-Amino-2-(5-methoxy-thiophen-2-yl)-[1,2,4]triazolo[1,5-a]pyridine-7-carboxylic acid 2-bromo-benzylamide], for which, in test [1], the Ki came to 108 nM and the “selectivity (A1/A2a)” value is 0.8. On HA1 adenosine receptor, this compound returned an inhibitory constant (Ki) of 85.7 nM.

As to `COc1ccc(-c2nc3cc(C(=O)N(Cc4ccccc4)C(C)C)cc(N)n3n2)s1` [Example 55, 5-Amino-2-(5-methoxy-thiophen-2-yl)-[1,2,4]triazolo[1,5-a]pyridine-7-carboxylic acid benzyl-isopropyl-amide], in test [1], the inhibition constant (Ki) was 28.3 nM and the “selectivity (A1/A2a)” value is on record as 2.7. Further, the affinity at HA1 adenosine receptor, expressed as Ki, was 76.4 nM.

`COc1ccc(-c2nc3cc(C(=O)NCc4ccccc4Cl)cc(N)n3n2)s1` [Example 56, 5-Amino-2-(5-methoxy-thiophen-2-yl)-[1,2,4]triazolo[1,5-a]pyridine-7-carboxylic acid 2-chloro-benzylamide]: in test [1], the Ki was determined as 82 nM and the “selectivity (A1/A2a)” value was 1.1. On HA1 adenosine receptor, this compound returned a Ki of 86.3 nM.

Turning to `COc1ccc(-c2nc3cc(C(=O)NCc4ccccc4OC)cc(N)n3n2)s1` [Example 58, 5-Amino-2-(5-methoxy-thiophen-2-yl)-[1,2,4]triazolo[1,5-a]pyridine-7-carboxylic acid 2-methoxy-benzylamide], in test [1], the Ki is 71.9 nM and the “selectivity (A1/A2a)” value is given as 0.7. The compound further had a Ki at HA1 adenosine receptor of 52.7 nM.

As for `CCN(Cc1ccccc1)C(=O)c1cc(N)n2nc(-c3ccc(OC)s3)nc2c1` [Example 59, 5-Amino-2-(5-methoxy-thiophen-2-yl)-[1,2,4]triazolo[1,5-a]pyridine-7-carboxylic acid benzyl-ethyl-amide], in test [1], the Ki was 42.9 nM and the “selectivity (A1/A2a)” value was 2.5. On HA1 adenosine receptor, the inhibition constant Ki is 106 nM.

As to `COc1ccc(-c2nc3cc(C(=O)NCc4ccccc4)cc(N)n3n2)s1` [Example 62, 5-Amino-2-(5-methoxy-thiophen-2-yl)-[1,2,4]triazolo[1,5-a]pyridine-7-carboxylic acid benzylamide], in test [1], the inhibition constant (Ki) was 176 nM and the “selectivity (A1/A2a)” value is on record as 0.6. This compound had a Ki on HA1 adenosine receptor of 113 nM.

Take `CCCCCCNC(=O)c1cc(N)n2nc(-c3ccc(OC)s3)nc2c1` [Example 63, 5-Amino-2-(5-methoxy-thiophen-2-yl)-[1,2,4]triazolo[1,5-a]pyridine-7-carboxylic acid hexylamide]: the Ki in test [1] is 181 nM; on HA1 adenosine receptor, 247 nM. In test [1], the “selectivity (A1/A2a)” value was 1.4.

`COc1ccc(-c2nc3cc(C(=O)NC4CCCCC4)cc(N)n3n2)s1` [Example 64, 5-Amino-2-(5-methoxy-thiophen-2-yl)-[1,2,4]triazolo[1,5-a]pyridine-7-carboxylic acid cyclohexylamide]: the Ki worked out at 227 nM in test [1] and 223 nM at HA1 adenosine receptor. Also, in test [1], the “selectivity (A1/A2a)” value is reported as 1.0.

As for `CCN(C(=O)c1cc(N)n2nc(-c3ccc(OC)s3)nc2c1)C(C)C` [Example 65, 5-Amino-2-(5-methoxy-thiophen-2-yl)-[1,2,4]triazolo[1,5-a]pyridine-7-carboxylic acid ethyl-isopropyl-amide], in test [1], the Ki amounted to 51.5 nM and the “selectivity (A1/A2a)” value was 4.1. Further, the affinity on HA1 adenosine receptor, expressed as Ki, was 211 nM.

Regarding `COc1ccc(-c2nc3cc(C(=O)N4CCCCC4)cc(N)n3n2)s1` [Example 66, [5-Amino-2-(5-methoxy-thiophen-2-yl)-[1,2,4]triazolo[1,5-a]pyridin-7-yl]-piperidin-1-yl-methanone], in test [1], the Ki stood at 174 nM and the “selectivity (A1/A2a)” value is 3.6. The affinity on HA1 adenosine receptor, expressed as Ki, was 623 nM.

Turning to `CCCCNC(=O)c1cc(N)n2nc(-c3ccc(OC)s3)nc2c1` [Example 67, 5-Amino-2-(5-methoxy-thiophen-2-yl)-[1,2,4]triazolo[1,5-a]pyridine-7-carboxylic acid butylamide], in test [1], the inhibitory constant (Ki) was found to be 99.1 nM and the “selectivity (A1/A2a)” value is 1.4. Besides, at HA1 adenosine receptor, the inhibition constant Ki turned out to be 136 nM.

As for `CCN(CC)C(=O)c1cc(N)n2nc(-c3ccc(OC)s3)nc2c1` [Example 68, 5-Amino-2-(5-methoxy-thiophen-2-yl)-[1,2,4]triazolo[1,5-a]pyridine-7-carboxylic acid diethylamide], the Ki was found to be 171 nM in test [1] and 717 nM on HA1 adenosine receptor. Moreover, the “selectivity (A1/A2a)” value in test [1] was 4.2.

As for `COc1ccc(-c2nc3cc(C(=O)NC4CCC4)cc(N)n3n2)s1` [Example 70, 5-Amino-2-(5-methoxy-thiophen-2-yl)-[1,2,4]triazolo[1,5-a]pyridine-7-carboxylic acid cyclobutylamide], in test [1], the Ki came out at 113 nM and the “selectivity (A1/A2a)” value was 1.3. For the same compound, affinity at HA1 adenosine receptor was put at a Ki of 148 nM.

`CCCNC(=O)c1cc(N)n2nc(-c3ccc(OC)s3)nc2c1` [Example 71, 5-Amino-2-(5-methoxy-thiophen-2-yl)-[1,2,4]triazolo[1,5-a]pyridine-7-carboxylic acid propylamide]: in test [1], the Ki amounted to 64.9 nM and the “selectivity (A1/A2a)” value was 2.8. The compound further registered an inhibition constant Ki on HA1 adenosine receptor of 180 nM.
